Results published in patent publication US5702728A, “Clam extract preparation, the method of preparation and use thereof” (priority 1993, dated 1997).

How the values were obtained:
[1] = tested on: Pain Threshold of Tail Roots of Mice Caused by Electric Irritation; experiment: Pain threshold of tail roots of mice, electric irritation; format: in vivo; settings: 7.5 mg/kg; for Pain threshold: before medication 0.22 ± 0.08, P < 0.05; for Increasing percentage of the pain threshold: intrarectal, P < 0.01 vs control
Procedure: (§1) The purpose of the test is to observe effects of the suppository prepared by the clam extract composition of the invention on pains of mice caused by chemical and electric irritation, and the time of initiation and duration of the effect.
(§2) The clam extract composition of the invention was dissolved in 2 mol acetic acid and the pH value was adjusted to be 6.5~7.0. Then normal saline in an adequate amount was added.
(§3) Indomethacin: produced by Nantong Second Pharmaceutical Factory, with the lot number of 860321, which was formulated into a suspension with 2% of water-soluble starch paste.
An electric stimulator of Model NEN-7103, and an isolator of Model SS-102J, made in Japan.
After fasting for 12 hours, 50 mice were randomly allotted into 5 groups based on their body weight and sex. The root of mouse's tail was stimulated with electric current of square wave (10 ms of pulse width and 1 Hz of the frequency). The pain threshold was determined as the electric intensity which just makes the mouse screaming. The drug was intrarectally administered with the volume of 0.05 ml per mouse. […]

[2] = tested on: Body Torsion Reaction of Mice Caused by Acetic Acid; experiment: Body torsion reaction of mice caused by acetic acid, oral administration; format: in vivo, Kunming strain mice; settings: 0.03 (head mg/kg; text 30 mg/kg)
Procedure: Clam extract composition of the invention was dissolved in 2N acetic acid and the pH value was adjusted to be 6.5~7.0. The normal saline in an adequate amount was added to formulate a solution. Indomethacin: produced by Shijiazhuang Pharmaceutical Factory, with the lot number of 009011021, which was formulated into a suspension with 2% of starch paste.
Kunming strain mice, male and female, with body weight of 20±2 g, provided by the Department of Animals of Beijing Medical University.
Fifty mice were randomly allotted into 5 groups based on their body weight and sex. In the control group, 0.2 ml/kg body weight of normal saline was administered per oral; while in the positive group, 30 mg/kg of indomethacin was administered per oral. […] 90 minutes later, 0.2 ml of 0.6% acetic acid per mouse was intraperitoneally injected and the number of body torsion reactions (abdominal excavation, extension of trunk and hind limbs, and elevation of buttock) of the mouse observed within 15 minutes after the injection of acetic acid was recorded.

[3] = tested on: Body Torsion Reaction of Mice Caused by Acetic Acid; experiment: Body torsion reaction of mice caused by acetic acid, intrarectal administration; format: in vivo; settings: 7.5 mg/kg
Procedure: as §1, §2, §3
After fasting for 12 hours, 60 mice were randomly allotted into 6 groups based on their body weight and sex. The drug was intrarectally administered in the dosage indicated in Table 3 and the volume of drug administered was 0.05 ml per mouse. 35 minutes later, 0.20 ml of 0.6% acetic acid was intraperitoneally injected to each mouse. The number of body torsion reactions (abdominal excavation, extension of trunk and hind limbs, and elevation of buttock) observed within 15 minutes after the injection of acetic acid was recorded.

With `COc1ccc2c(c1)c(CC(=O)O)c(C)n2C(=O)c1ccc(Cl)cc1` [Indomethacin] the Pain threshold ([1]; 20 min, control 0.25 ± 0.08) was 0.32 ± 0.06 mA, the Pain threshold ([1]; 40 min, control 0.28 ± 0.11) was 0.41 ± 0.12 mA and the Pain threshold ([1]; 60 min, control 0.26 ± 0.13) was 0.44 ± 0.15 mA. The Pain threshold ([1]; 90 min, control 0.26 ± 0.13) was 0.41 ± 0.13 mA, the Pain threshold ([1]; 120 min, control 0.25 ± 0.11) was 0.38 ± 0.13 mA and the “Increasing percentage of the pain threshold” value (“Increasing percentage” below) ([1]; 20 min) was 37.4 ± 18.4 percentage. The “Increasing percentage” value ([1]; 40 min) was 71.4 ± 39.4 percentage, the “Increasing percentage” value ([1]; 60 min) was 86.3 ± 45.9 percentage and the “Increasing percentage” value ([1]; 90 min) was 72.5 ± 59.1 percentage. For the same compound, the “Increasing percentage” value ([1]; 120 min) was 69.6 ± 62.3 percentage, the Inhibition rate [2] was 93.7% and the “Number of body torsions” value ([2]; control 44.1 ± 12.8, P < 0.01) was 2.8 ± 4.8 n. For the same compound, the Inhibition rate [3] was 93.1% and the “Number of body torsions” value ([3]; control 39.3 ± 14.4) was 2.7 ± 4.1 n.
